Laboratory results published in US20120252773A1, “Method and composition for inhibiting cell proliferation and angiogenesis” (priority 2005, published 2012).

Legend:
[1] = test system: Human Dermal Microvascular Endothelial Cells (HDMVEC); assay: Growth inhibition of HDMVEC cells, MTT, 7 days; assay type: cell-based; details: Endothelial cell, HDMVEC growth, procedures of Example 3, read-out: Inhibitory Effect (IC50 Value)
Protocol: To measure the inhibitory activity of (2) on growth of HDMVEC cells (Clonetics, San Diego, Calif.), 2,000 cells were seeded in each well of a 96-well plate in […] of EGM medium (Clonetics) supplemented with 5% fetal bovine serum (Sigma). The plate was incubated at 37° C. in a tissue culture incubator for 24 h, and then various concentrations of (2) dissolved in EGM were added to each well in 5-10 μl aliquots. Four wells were used for each concentration. Medium in each well was renewed with fresh test solution added every other day. After 7 days of culture, the viable cells were measured using reagents from an MTT kit (Promega Corporation, Madison, Wis.), using instructions provided by the supplier. The number of viable cells in treated wells relative to those in control wells gave the percentage of inhibition.
The procedures of Example 3 were carried out to evaluate the inhibitory effect of various compounds of the invention on the growth of HDMVEC cells (Clonetics, San Diego, Calif.).

[2] = test system: HIF-1α protein in PC-3 prostate cancer cells; assay: HIF-1α protein expression by immunoblotting, PC-3 cells; assay type: cell-based, human; details: PC-3, same hypoxic/anoxic conditions as for (2)
Protocol: (§1) Hypoxia experiments were performed in either of two ways. To produce a very low ambient oxygen concentration (effectively anoxia), we used a protocol in which cells were incubated in a 5% CO2-air atmosphere at 37° C. overnight and then placed in aluminum gas-exchange chambers maintained at 37° C. (Laderoute K R et al. Mol Cell Biol 22: 2515-2523, (2002); Laderoute K R et al. Mol Cell Biol 24: 4128-4137, (2004)). The chambers containing the cells were then placed in a 37° C. circulating water bath and the original atmosphere was repeatedly exchanged with 5% CO2-95% N2 using a manifold equipped with a vacuum pump and a gas cylinder. Atmospheric oxygen partial pressure (pO2) values of less than or equal to 0.01% (relative to air at pO2 of about 21%) can be achieved inside the chambers using this system. Following various hypoxic exposures, the chambers were opened an anaerobic glove box (Bactron X, Sheldon Manufacturing Inc., Cornelius, Oreg.; attached to a cylinder containing 5% CO2-95% N2) to prepare cell lysates without significant reoxygenation. All manipulations of hypoxic cells were performed in the anaerobic glove box. Atmospheric oxygen levels in both the chambers and the glove box have been measured and calibrated using a polarographic oxygen electrode (Oxygen Sensors, Inc., Norristown, Pa.). Hypoxia experiments involving a pO2 of 1% were performed by equilibrating the glove box with an atmosphere of 1% O2 5% CO2 95% N2 held at 37° C. with a circulating fan. Cells were incubated inside a humidified space in the glove box and the medium on the cells was gently and continually agitated by using a rotary shaker. For these experiments, we used RAW 264.7 immortalized mouse macrophages as normal control cells, PC-3 prostate cancer cells, and MDA-MB-231 breast cancer cells, all available from ATCC.
(§2) We used immunoblotting to evaluate the experiments. Nuclear lysates were used to detect HIF-1α protein by immunoblotting (Murphy B J et al. Biochem Biophys Res Commun (In Press): 2005). Briefly, cells were placed on ice in air or on Super Ice® cold packs in the anaerobic glove box and the medium was removed. […] After spinning at 9,000×g for 5 min at 4° C., the protein concentrations of the supernatants were determined by using a bicinchoninic acid assay (Pierce Biotechnology). […] Primary antibody binding was detected and visualized by using the ECL Plus Western Blotting Detection System (Amersham Pharmacia Biotech) according to the supplier's instructions. HIF-1α protein was detected by using an anti-HIF-1α monoclonal antibody (Novus Biologicals, Cat. No. NB100-123; diluted 1:500) and a horseradish peroxidase-conjugated anti-mouse IgG secondary antibody (Santa Cruz Biotechnology, Cat. No. sc-2062; diluted 1:20,000). […]

[3] = test system: HIF-1α protein in MDA-MB-231 human breast carcinoma cells; assay: HIF-1α protein expression by immunoblotting, MDA-MB-231 cells; assay type: cell-based; details: MDA-MB-231, same hypoxic/anoxic conditions as for (2)
Protocol: as §1, with “Hypoxia experiments involving a pO2 of 1% were performed by equilibrating the glove box with an atmosphere of 1% O2 5% CO2 95% N2 held at 37° C. with a circulating fan. Cells were incubated inside a humidified space in the glove box and the medium on the cells was gently and continually agitated by using a rotary shaker. For these experiments, we used RAW 264.7 immortalized mouse macrophages as normal control cells, PC-3 prostate cancer cells, and MDA-MB-231 breast cancer cells, all available from ATCC.” left out
as §2, with “experiments.” for “experiments. Nuclear lysates were used to detect HIF-1α protein by immunoblotting (Murphy B J et al. Biochem Biophys Res Commun (In Press): 2005). Briefly, cells were placed on ice in air or on Super Ice® cold packs in the anaerobic glove box and the medium was removed.”

[4] = test system: human endometrial Ishikawa cells; assay: Estrogenic activity, alkaline phosphatase, Ishikawa cell-based assay; details: 72 hours
Protocol: Ishikawa cell based assays were run in parallel on human endometrial Ishikawa cells treated with compound (2) or with 2-methoxyestradiol. 2-Methoxyestradiol is a compound reported in the literature as an anti-angiogenic agent. Cells were cultured in 96-well plates for 48 hours in estrogen- and phenol red-free medium (DMEM/Hamm's F12 medium) containing 5% fetal bovine serum stripped of endogenous estrogens with dextran coated charcoal (Sigma). Compound (2) or other test compounds were then added to the cells and culturing was continued for an additional 72 hours. To the control cells (no (2)), 10^−9 M of […] was added. At the end of 72 hours, alkaline phosphatase activity was measured by adding 5 mM p-nitrophenyl phosphate, 0.24 mM MgCl2, and 1 M diethanolamine (pH 9.8) to the cells while the 96-well plates were kept on ice. The plates were then warmed to room temperature, and the yellow color from the production of p-nitrophenol was measured after 2-3 hours using an ELISA plate reader at a wavelength of 405 nm. The estrogenic activity was defined as the alkaline phosphatase activity stimulated by the test compounds alone as a percentage of that stimulated by estradiol at 10^−9 M. Stimulation by estradiol at 10^−9 M was taken as 100%.

Structure (SMILES) | IC50 [1] [nM] | also measured
CCN(CC)Cc1ccccc1OC/C=C1\CCC2C3C(CCC12C)c1ccc(O)cc1C[C@H]3C (some centres unmarked) | 4700 | –
CCN(CC)Cc1ccc(OC/C=C2\CCC3C4C(CCC23C)c2ccc(O)cc2C[C@H]4C)c(OC)c1 (some centres unmarked) | 1500 | –
COc1cc(CN2CCCC2)ccc1OCCC1CCC2C3C(CCC12C)c1ccc(O)cc1C[C@H]3C (some centres unmarked) | 1200 | –
C[C@@H]1Cc2cc(O)ccc2C2CCC3(C)C(CCOc4ccc(C=O)cc4Cl)CCC3C21 (some centres unmarked) | 10000 | –
CCN(CC)Cc1ccc(OCCC2CCC3C4CCc5cc(O)ccc5C4CCC23C)c(OC)c1 (centres unmarked) | 2000 | –
COc1cc(CN2CCCCC2)ccc1OCCC1CCC2C3C(CCC12C)c1ccc(O)cc1C[C@H]3C (some centres unmarked) | 600 | –
COc1cc(CO)ccc1OCCC1CCC2C3C(CCC12C)c1ccc(O)cc1C[C@H]3C (some centres unmarked) | 5000 | –
CCN(CC)Cc1ccc(OCCC2CCC3C4C(CCC23C)c2ccc(O)cc2C[C@H]4C)c(OC)c1 (some centres unmarked) | 2000 | –
COC(=O)/C=C/c1ccc(OC/C=C2\CCC3C4C(CCC23C)c2ccc(O)cc2C[C@H]4C)cc1 (some centres unmarked) | 5300 | –
C[C@@H]1Cc2cc(O)ccc2C2CCC3(C)C(CCOCCN(C)C)CCC3C21 (some centres unmarked) | 4000 | –
CN(C)CCOC/C=C1\CCC2C3CCc4cc(O)ccc4C3CCC12C (centres unmarked) | 1800 | –
OCc1ccc(-c2nn(Cc3ccccc3)c3ccccc23)o1 [YC-1, reference compound] | – | HIF-1α protein expression, standard HIF-1 inhibitors [2]: did not find that YC-1, another standard HIF-1 inhibitor, could reproducibly inhibit; HIF-1α protein expression, standard HIF-1 inhibitors [3]: did not find that YC-1, another standard HIF-1 inhibitor, could reproducibly inhibit
CCN(CC)Cc1cc(OC)c(OCCC2CCC3C4C(CCC23C)c2ccc(O)cc2C[C@H]4C)c(OC)c1 (some centres unmarked) | 3600 | –
COc1cc2c(cc1O)CC[C@@H]1[C@@H]2CC[C@]2(C)[C@@H](O)CC[C@@H]12 [2-methoxyestradiol, 2-Methoxyestradiol, reference compound] | – | estrogenic activity (alkaline phosphatase stimulation relative to estradiol at 10^−9 M) [4]: large amount of estrogenic activity; HIF-1α protein expression, standard HIF-1 inhibitors [2]: did not find any effect; HIF-1α protein expression, standard HIF-1 inhibitors [3]: did not find any effect
